Our source for the IC50 values is patent US20110054017A1, “SUBSTITUTED FURANS AND THEIR USE” (priority 2008, published 2011).

pIC50: −log10 of the molar value.

T1 sequence (P43119 whole entry): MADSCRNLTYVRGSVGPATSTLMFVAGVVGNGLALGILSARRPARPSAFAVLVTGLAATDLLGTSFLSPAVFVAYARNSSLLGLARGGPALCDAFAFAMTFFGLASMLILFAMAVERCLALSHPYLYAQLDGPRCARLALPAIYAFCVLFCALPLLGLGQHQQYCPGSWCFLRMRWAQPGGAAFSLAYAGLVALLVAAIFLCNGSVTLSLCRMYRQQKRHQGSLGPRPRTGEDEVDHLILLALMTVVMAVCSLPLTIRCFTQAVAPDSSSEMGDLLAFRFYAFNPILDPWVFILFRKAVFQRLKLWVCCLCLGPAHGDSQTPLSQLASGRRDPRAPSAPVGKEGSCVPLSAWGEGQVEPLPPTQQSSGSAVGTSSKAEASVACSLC

The test has as its target T1, Prostacyclin Receptors (IP Receptors) of Human Thrombocyte Membranes (Homo sapiens, UniProt P43119).
T1 construct: Thrombocyte membranes are obtained by centrifuging 50 ml human blood; tissue Maco Pharma, Langen; host or cells: human thrombocyte (platelet) membranes prepared from buffy coats
As to the kind of experiment: Binding to prostacyclin receptors (IP receptors) of human thrombocyte membranes, 3H-Iloprost displacement. The conditions noted are these: 3 nM 3H-Iloprost, 60 min, room temperature. The procedure: B-1. Studies of Binding to Prostacyclin Receptors (IP Receptors) of Human Thrombocyte Membranes
Thrombocyte membranes are obtained by centrifuging 50 ml human blood (Buffy coats with CDP Stabilizer, from Maco Pharma, Langen) for 20 min at 160×g. Remove the supernatant (platelet-rich plasma, PRP) and then centrifuge again at 2000×g for 10 min at room temperature. Resuspend the sediment in 50 mM tris(hydroxymethyl)aminomethane, which has been adjusted to a pH of 7.4 with 1 N hydrochloric acid, and store at −20° C. overnight. On the next day, centrifuge the suspension at 80 000×g and 4° C. for 30 min. Discard the supernatant. Resuspend the sediment in 50 mM tris(hydroxymethyl)aminomethane/hydrochloric acid, 0.25 mM ethylene diamine tetraacetic acid (EDTA), pH 7.4, and then centrifuge once again at 80 000×g and 4° C. for 30 min. Take up the membrane sediment in binding buffer (50 mM tris(hydroxymethyl)-aminomethane/hydrochloric acid, 5 mM magnesium chloride, pH 7.4) and store at −70° C. until the binding test.
For the binding test, incubate 3 nM ^3H-Iloprost (592 GBq/mmol, from AmershamBioscience) for 60 min with 300-1000 μg/ml human thrombocyte membranes per charge (max. 0.2 ml) in the presence of the test substances at room temperature. After stopping, add cold binding buffer to the membranes and wash with 0.1% bovine serum albumin. After adding Ultima Gold Scintillator, quantify the radioactivity bound to the membranes using a scintillation counter. The nonspecific binding is defined as radioactivity in the presence of 1 μM Iloprost (from Cayman Chemical, Ann Arbor) and is as a rule <25% of the bound total radioactivity. The binding data (IC50 values) are determined using the program GraphPad Prism Version 3.02.
`COc1ccc(-c2c(-c3ccccc3)oc(C)c2C(=O)NC(C)CCCCC(=O)O)cc1` (stereo not drawn) [Example 24]: the pIC50 is 6.32. `COc1ccc(-c2c(-c3ccccc3)oc(C)c2C(=O)Nc2cccc(OCC(=O)O)c2)cc1` [Example 20] gave a pIC50 of 6.36.

Take `COC(=O)CCCCCNC(=O)c1c(C)oc(-c2ccccc2)c1-c1ccc(OC)cc1` [Example 4, Methyl 6-({[4-(4-methoxyphenyl)-2-methyl-5-phenylfuran-3-yl]carbonyl}amino)hexanoater]: the negative-log IC50 (pIC50) is 6.33. Regarding `CCc1ccc(-c2c(-c3ccccc3)oc(C)c2C(=O)NCCCCCC(=O)O)cc1` [Example 18], the pIC50 is 6.86. In turn, `COc1ccc(-c2c(-c3ccccc3)oc(C)c2C(=O)O[C@H](C)CCCCC(=O)O)cc1` [Example 21] showed a pIC50 of 6.50. `COc1ccc(-c2c(-c3ccccc3)oc(C)c2C(=O)N[C@H](C)CCCCC(=O)O)cc1` [Example 26] gave a pIC50 of 6.17.

In general, pIC50 refers to −log10 of the IC50, conventionally taken in molar units. Low readings indicate a high IC50, high ones a low IC50.
